According to patent publication US7767411B2, “Assay system for specific inhibitors of protein kinase C-related kinases” (Universitaetsklinikum Freiburg, priority 2004, dated 2010):

Experiments:
[1] = system: androgen receptor (AR) activation by RhoA V14; assay: ligand-dependent activation of the androgen receptor (AR) by RhoA V14, MMTV-LUC reporter in 293 cells; type: cell-based; conditions: RhoA V14 plasmid, with or without R 1881 10^-10 M, 5×10^−7 M Ro31-8220
Description: In another preferred embodiment, the assay system comprises the reaction of the ligand-dependent activation of the androgen receptor (AR) by RhoA V 14. […] Reference is made, in this respect, to FIG. 2.

protein kinases = conditions: described in S. P. Davies et al.; cited from earlier work
MCF-7 cells = assay: androgen receptor agonist R 1881-induced cell proliferation in MCF-7 cells; type: cell-based; conditions: presence or absence of R1881, FIG. 3
Experimental: The inventors studied the cell proliferation inter alia in MCF-7 cells which is induced by the androgen receptor agonist R 1881 under the activating/promoting action of PRKs. MCF-7 cells were cultivated in RPMI 1640 supplemented with 2 g/l NaHCO3, L-Glu, Pen/Strep, 10% FCS (fetal calf serum), and insulin 1U/ml in the presence or absence of R1881 and Ro31-8220 at the indicated concentrations. The cell proliferation assay was performed according to the manufacture's instructions (Roche, #1647229).

Compound	agonist-dependent androgen receptor (AR) activation by RhoA V14 [1]	protein kinases acted on (specificity) (protein kinases)	R 1881-induced cell proliferation (MCF-7 cells)
Cn1cc(C2=C(c3cn(CCCSC(=N)N)c4ccccc34)C(=O)NC2=O)c2ccccc21 [Ro31-8220]	abolished	act on PRKs, but also on MSK1, S6K1 and other protein kinases	inhibited
C[C@@H](N)[C@H]1CC[C@H](C(=O)Nc2ccncc2)CC1 [Y 27632]		act on PRKs, but also on MSK1, ROCK-II and MAPKAP-K1b	
